{"source": "patent US20070004653A1", "about": "“Stable lyophilized anthracycline glycosides” (priority 2005, published 2007)", "key": {"[1]": {"assay": "Stability tests of lyophilized Idarubicin HCl, not stabilized and stabilized: pH, aglycone, bis-anhydro before and after lyophilization", "format": "physicochemical", "method": "Starting product was idarubicin hydrochloride, 1% w/v in water, containing amount of free HCl. No additional chemicals were added. Most of the solution was frozen and lyophilized. […]\nTo obtain idarubicin hydrochloride containing a trace amount of free HCl, idarubicin HCl was slurried in 20 volumes of a mixture of dichloromethane:methanol (90:10) containing a 1% molar amount of HCl with respect to the molar amount of idarubicin hydrochloride. The slurry was filtered off and washed with the same solvent mixture and then dried under vacuum at room temperature, until constant weight.\nStarting product was idarubicin hydrochloride: 1% w/v in water, containing a trace amount of free HCl. 1.5% mol of both NH4OAc and AcOH with respect to idarubicin hydrochloride were added. Most of the solution was frozen and lyophilized. […]\nStarting product was idarubicin hydrochloride, 1% w/v in water, containing a trace amount of free HCl. The solution was first decolorized with charcoal and 1.5% mol of both NH4OAc and AcOH with respect to idarubicin hydrochloride were added. Most of the solution was frozen and lyophilized. […]\nStarting product was idarubicin hydrochloride, 1% w/v in water, containing a trace amount of free HCl. 0.65% mol of both NH4OAc and AcOH (0.1% and 0.08% w/w, respectively) with respect to idarubicin hydrochloride were added. Most of the solution was frozen and lyophilized. […]\nStarting product was idarubicin hydrochloride, 1% w/v in water, containing a trace amount of free HCl. 0.1% w/w of NH4HCO3 and gaseous CO2 were added. Most of the solution was frozen and lyophilized. […]\nStarting product was idarubicin hydrochloride, 1% w/v in water, containing a trace amount of free HCl. 0.1% w/w of NaHCO3 and gaseous CO2 were added. Most of the solution was frozen and lyophilized. […]\nStarting product was idarubicin hydrochloride, 1% w/v in water, containing a trace amount of free HCl. 1.0% molar amount of AMBERLITE® IRA-67 (1.6 M) acetate and 0.8% molar amount of acetic acid with respect to idarubicin hydrochloride were added. The solution was filtered through a 0.4 micron membrane then it was frozen and lyophilized."}, "[2]": {"conditions": "cited from earlier work"}, "[3]": {"conditions": "cited from earlier work", "remark": "listed apart in the source"}, "[4]": {"conditions": "Example 16: solution to load into lyophilizer, no additional chemicals"}, "[5]": {"conditions": "Example 26: solution + 1.5% mol of both NH4OAc/AcOH to load into lyophilizer"}, "[6]": {"conditions": "Example 27: solution decolorized with charcoal + 1.5% mol of both NH4OAc/AcOH to load into lyophilizer"}, "[7]": {"conditions": "Example 28: solution + 0.65% mol of both NH4OAc/AcOH to load into lyophilizer"}, "[8]": {"conditions": "Example 29: lyophilized product obtained (NH4HCO3 + CO2)"}, "[9]": {"conditions": "Example 29: solution + 0.1% w/w of NH4HCO3 and gaseous CO2 to saturation, to load into lyophilizer"}, "[10]": {"conditions": "Example 30: lyophilized product obtained (NaHCO3 + CO2)"}, "[11]": {"conditions": "Example 30: solution + 0.1% w/w of NaHCO3 and gaseous CO2 to saturation, to load into lyophilizer"}, "[12]": {"conditions": "Example 31: solution + 1.0% mol of IRA-67 acetate and 0.8% mol of acetic acid, slurried 2 hr, filtered, loaded into lyophilizer"}}, "note": "Like-named read-outs stand apart in the source and are kept apart here.", "data": [{"molecule": "CC(=O)[C@]1(O)Cc2c(O)c3c(c(O)c2[C@@H](O[C@H]2C[C@@H](N)[C@H](O)C(C)O2)C1)C(=O)c1ccccc1C3=O.Cl", "note": "(stereo partly drawn) [Idarubicin HCl, Idarubicin hydrochloride]", "values": [{"measurement": "% aglycone", "setting": "[1]; Example 16: lyophilized product obtained, not stabilized", "result": 0.29, "unit": "%"}, {"measurement": "% aglycone", "setting": "[1]; [4]", "result": 0.14, "unit": "%"}, {"measurement": "pH of the solution as 1% w/v", "setting": "[1]; [4]", "result": 5.36}, {"measurement": "pH of the solution diluted to 0.5% w/v", "setting": "[1]; [4]", "result": 6.32}, {"measurement": "% aglycone", "setting": "[1]; Example 26: lyophilized product obtained (1.5% mol of both NH4OAc/AcOH)", "result": 0.16, "unit": "%"}, {"measurement": "% aglycone", "setting": "[1]; [5]", "result": 0.14, "unit": "%"}, {"measurement": "pH of the solution as 1% w/v", "setting": "[1]; [5]", "result": 5.14}, {"measurement": "pH of the solution diluted to 0.5% w/v", "setting": "[1]; [5]", "result": 5.26}, {"measurement": "% aglycone", "setting": "[1]; Example 27: lyophilized product obtained (charcoal + 1.5% mol of both NH4OAc/AcOH)", "result": 0.04, "unit": "%"}, {"measurement": "% aglycone", "setting": "[1]; [6]", "result": 0.03, "unit": "%"}, {"measurement": "pH of the solution as 1% w/v", "setting": "[1]; [6]", "result": 5.85}, {"measurement": "pH of the solution diluted to 0.5% w/v", "setting": "[1]; [6]", "result": 6.05}, {"measurement": "% aglycone", "setting": "[1]; Example 28: lyophilized product obtained (0.65% mol of both NH4OAc/AcOH)", "result": 0.19, "unit": "%"}, {"measurement": "% aglycone", "setting": "[1]; [7]", "result": 0.15, "unit": "%"}, {"measurement": "pH of the solution diluted to 0.5% w/v", "setting": "[1]; [7]", "result": 5.72}, {"measurement": "% aglycone", "setting": "[1]; [8]", "result": 0.16, "unit": "%"}, {"measurement": "% bis-anhydro", "setting": "[1]; [8]", "result": 0.05, "unit": "%"}, {"measurement": "% aglycone", "setting": "[1]; [9]", "result": 0.15, "unit": "%"}, {"measurement": "% bis-anhydro", "setting": "[1]; [9]", "result": 0.06, "unit": "%"}, {"measurement": "pH of the solution diluted to 0.5% w/v", "setting": "[1]; [9]", "result": 5.73}, {"measurement": "% aglycone", "setting": "[1]; [10]", "result": 0.16, "unit": "%"}, {"measurement": "% bis-anhydro", "setting": "[1]; [10]", "result": 0.05, "unit": "%"}, {"measurement": "% aglycone", "setting": "[1]; [11]", "result": 0.15, "unit": "%"}, {"measurement": "% bis-anhydro", "setting": "[1]; [11]", "result": 0.05, "unit": "%"}, {"measurement": "pH of the solution diluted to 0.5% w/v", "setting": "[1]; [11]", "result": 6.14}, {"measurement": "% aglycone", "setting": "[1]; Example 31: lyophilized product obtained (IRA-67 acetate + acetic acid)", "result": 0.18, "unit": "%"}, {"measurement": "% aglycone", "setting": "[1]; [12]", "result": 0.15, "unit": "%"}, {"measurement": "pH of the solution after dilution to 0.5% w/v", "setting": "[1]; [12]", "result": 5.82}, {"measurement": "% aglycone", "setting": "[1]; starting solid idarubicin HCl containing a trace amount of HCl", "result": 0.14, "unit": "%"}, {"measurement": "pH in a 0.5% w/v solution in water", "setting": "[2]", "result": "5.0-6.5"}, {"measurement": "solubility", "setting": "[3]; in acetone, chloroform, and methylene chloride", "result": "practically insoluble"}, {"measurement": "solubility", "setting": "[3]; in water, methanol, and other polar solvents like dimethylformamide", "result": "soluble"}, {"measurement": "solubility", "setting": "[3]; in water", "result": "not very soluble"}]}]}
